Data set [1] deals with IR-induced Rad51 foci in MCF-7 breast cancer cells. The experiment in a line: IR-induced Rad51 foci formation (immunostaining). It counts as cell-based. The following applies: MCF-7 cells.
Description: These compounds were then tested for their effects on IR-induced Rad51 foci formation in MCF-7 breast cancer cells.
To test this possibility, the number of the MCF-7 cells that formed IR-induced Rad51 foci was measured after IBR2 treatment.
Immunostaining Rad51 and g-H2AX foci: MCF-7 cells were treated with 20 μM IBR2 for 7 or 19 hours and then g-irradiated at 20 Gy. Cells were incubated for an additional 5 hours with 20 μM IBR2, then fixed with 4% paraformaldehyde in PBS containing 0.5% Triton X-100. The fixed cells were incubated with a-Rad51 antibody (mAb 1F5) or a-g-H2AX antibody (Upstate). Rad51 and g-H2AX foci positive cells were subsequently counted as described (Chen et al., 1999).
In another data set the test system is Rad51 in MCF-7 cells. Kind of data set: Rad51 stability assay with cyclohexamide. It is filed as cell-based. The following applies: with cyclohexamide; control cells 5.5 hours. An excerpt: To examine the impact of IBR2 on Rad51 protein expression, IBR2 treated MCF-7 cells was examined by straight western blot probed with a panel of antibodies against BRCA2, Rad51, Rad50, p84 and Rb. […] Consistent with our FACS analysis (FIG. 4A), the hypo-phosphorylated form of Rb, a marker for G1 phase, was the major form observed in the later time points, further confirming that IBR2 arrests cells at G1 phase (FIG. 4A). It has been reported that BRCA2 level is cell cycle dependent, which expresses low in G1 phase and peaks at G1/S boundary. Therefore the decreased level of BRCA2 in IBR2 treated cells may be due to G1 phase arrest. Different from BRCA2 protein, Rad51 protein is expressed constant throughout the cell cycle in MCF-7 cells (data not shown). Therefore, loss of Rad51 protein may be the direct effect of IBR2 treatment instead of the consequence of G1 arrest. […]
Western blot analysis: Cells were treated with […] or 50 μg/ml cycloheximide (CHX) or 1 μM MG132 and harvested at different time points for western blot analysis. […] The intensity of bands was quantified by densitometry using Labworks 4.5 software. The relative value of the band intensity was calculated with respect to that of untreated sample after normalization with the p84 signal.

Another data set concerns the target T1, Rad51 multimers (Homo sapiens, UniProt Q06609).
T1 sequence (Q06609 1-339): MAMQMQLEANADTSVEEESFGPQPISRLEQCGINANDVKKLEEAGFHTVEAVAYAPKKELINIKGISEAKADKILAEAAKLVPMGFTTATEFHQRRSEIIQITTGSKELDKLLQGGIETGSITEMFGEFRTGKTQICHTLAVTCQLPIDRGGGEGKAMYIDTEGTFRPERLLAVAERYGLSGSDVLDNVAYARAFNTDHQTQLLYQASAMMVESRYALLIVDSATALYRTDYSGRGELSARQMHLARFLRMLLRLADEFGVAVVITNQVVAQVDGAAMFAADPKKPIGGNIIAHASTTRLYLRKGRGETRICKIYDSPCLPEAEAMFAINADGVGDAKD
Kind of data set: Gel filtration of Rad51 multimers. It is filed as biochemical. The following applies: Rad51:compound molar ratio 1:10. An excerpt: (§1) If the IBR compound indeed occupies the hydrophobic pocket for the entrance of Phe1524 in BRCA2, the oligomerization of Rad51 should also be affected since they share the same binding region. […] Therefore, if IBR2 mimics the BRC hairpin structure, the Rad51 multimerization will also be inhibited by IBR2. We compared the gel filtration profile of Rad51 between with and without IBR2. […] The inhibition of the Rad51 and BRC repeat binding was further analyzed by SPR technology in a solution competition format as previously described (see e.g., Science 303, 844-848).
Gel filtration: A mixture of Rad51 (3.2 μg) and small compound (molar ratio 1:10) was incubated for 15 minutes at 37° C., supplemented with buffer (50 mM triethanolamine-HCl [pH 7.5], 0.5 mM Mg (OAc)2, 1 mM dithiothreitol, 2 mM ATP, and 100 μg/ml BSA, total volume 20 μl) and incubated 15 more minutes. Then the mixture was loaded onto 2.4 ml Superdex 200 PC 3.2/30 columns (Pharmacia) equilibrated with the same buffer as described (Davies et al., 2001). Fractions (50 μl) were collected and 0.5 μl of each fraction was blotted onto PVDF membrane. Rad51 was detected using anti-Rad51 antibody (mAb 14B4).

The target of the next data set is T2, Rad51-BRC repeat complex (Homo sapiens, UniProt Q06609).
T2 sequence (Q06609 1-339): T1 sequence (Q06609 1-339)
Kind of data set: SPR solution competition assay. It counts as binding. The following applies: SPR solution competition format; read-out: median inhibitory concentration (IC50), displacement of BRC repeat from complex with Rad51.
Description: as §1
Surface Plasmon Resonance binding assays: The assays were performed at 25° C. in HBSD buffer (10 mM HEPES, 150 mM NaCl, 0.1% DMSO) on Biacore3000 (Biacore Inc.). Sensor chips NTA or glutathione-modified CM5 were used to capture His-Rad51 or GST-BRC1, respectively. The capture level was about 130 resonance units at a flow rate of 5 μl/min. For sequential binding assays, chips were treated with compounds (1 μM) and then proteins (50 μg/ml). The retained resonance units (RU) were recorded and averaged from triplicate experiments. For competition assays (Vassilev et al., 2004), IBR2 was incubated with 50 μg/ml BRC at 25° C. for 15 minutes prior to use. Relative binding percentages were calculated with respect to the binding without IBR2 and averaged from two independent experiments.

Data set [2] relates to non-small-cell lung carcinoma (CALU-1, A427, Sklu-1, CALU-6), osteosarcoma (SaoS2, U2OS) and glioblastoma (T98G) cell lines. The experiment in a line: Proliferation of other cancer cell lines. It counts as cell-based. The following applies: CALU-1, A427, Sklu-1, CALU-6, SaoS2, U2OS.
The subject of data set [3] is human breast cancer xenograft (MDA-MB-468). The experiment in a line: Tumor inhibition assay in nude mice. It counts as in vivo. The procedure:
To test the inhibitory effect of IBR2 on the growth of established tumor xenografts in nude mice, we chose the human breast cancer cell line MDA-MB-468 for this study. Mice with tumor size of approximately 85 mm3 were treated with three doses of IBR2 (10, 50 and 150 mg/kg i.p.) every other day for up to five weeks.
Tumor inhibition assay in nude mice: 5×10^6 MDA-MB-468 cells in 100 μl of PBS were injected into mammary fat pad of 6-8 week old athymic female BALB/c-nude mice (nu/nu) (Charles River Laboratories). After tumors grew to 85 mm^3 (day 12), mice were randomized into four groups (n=5 per group) to receive intraperitoneal injection of IBR2 (10, 50, or 150 mg/kg) or vehicle (15% DMSO, 20% Tween 20, 10% PEG400, 55% saline) every other day for 5 weeks. Body weights of mice and tumor volumes were measured twice weekly during the course of drug treatment. A Student's t test was used to determine P value.

Molecules are shown by their SMILES. “Also recorded” adds a separate entry of the source.

The results in this text go back to US8293764B2, “Compositions and methods for disruption of BRCA2-Rad51 interaction” (The Regents of the University of California, priority 2004, dated 2012).

For the molecule `O=S(=O)(Cc1ccccc1)N1C=Cc2ccccc2C1c1c[nH]c2ccccc12` (stereo not drawn) [IBR2, 2-(benzylsulfonyl)-1-(1H-indol-3-yl)-1,2-dihydroisoquinoline], the “IR-induced Rad51 foci formation” value in data set [1] is recorded as “dramatically reduced Rad51 foci formation; also recorded: significantly reduced IR-induced Rad51 foci formation”. For the same molecule, in the data set on Rad51 in MCF-7 cells, the “half-life of Rad51” value was 1.5 h. On Rad51 multimers, the “Rad51 multimerization (gel filtration elution profile)” value is listed as “dissociates Rad51 multimers”. The IC50 on Rad51-BRC repeat complex is around 115 nM. In addition, the proliferation entry in data set [2] is “significantly inhibited”. For the same molecule, in data set [3] (10, 50 and 150 mg/kg i.p.), the “average body weights of nude mice” value is on record as “remained almost constant” and the toxicity to animals entry is reported as “without apparent toxicity to animals”. In addition, the “retardation of tumor growth” value in data set [3] (10, 50 and 150 mg/kg i.p. every other day up to five weeks, vs vehicle) was “up to 65%”. Also, the “tumorigenicity in nude mice” value in data set [3] (mouse, in vivo) was “significantly reduced tumorigenicity in nude mice”.
